Test results as given in US9206128B2 (Constellation Pharmaceuticals, Inc., priority 2011, dated 2015).

Experiments:
EZH2 = EZH2 (Homo sapiens, UniProt Q15910); assay: EZH2 activity inhibition assay (rPRC2, 3H SAM, biotinylated oligonucleosomes, FlashPlate); assay type: biochemical; conditions: rPRC2, 2 nM EZH2, 0.2 μM 3H SAM, top concentration 80 μM
Protocol: (§1) EZH2 Assay: Assays were carried out by mixing rPRC2 together with biotinylated oligonucleosome substrates in the presence of the radio-labeled enzyme co-factor, S-adenosyl-L-methionine (^3H SAM) (Perkin Elmer) and monitoring the enzymatically mediated transfer of tritiated methyl groups from ^3H SAM to histone lysine residues. The amount of resulting tritiated methyl histone product was measured by first capturing the biotinylated oligonucleosomes in streptavidin (SAV) coated FlashPlates (Perkin Elmer), followed by a wash step to remove un-reacted ^3H SAM, and then counting on a TopCount NXT 384 well plate scintillation counter (Perkin Elmer).
A 12.5 μL volume of the HMT enzyme, H3K27me3 peptide and oligonucleosome substrate in assay buffer was added to each well of the assay plate using a Multidrop Combi (ThermoFisher). Compounds were pre-incubated with the enzyme for 20 min, followed by initiation of the methyltransferase reaction by addition of 12.5 μL of 3H SAM in assay buffer (final volume=25 μL). […] Stopped reactions were transferred to SAV coated Flashplates (Perkin Elmer), incubated for 120 min, washed with a plate washer, and then read on the TopCount NXT (1.0 min/well) to measure the amount of methyl histone product formed during the reaction.

Y641N EZH2 = Y641N EZH2 (Homo sapiens, UniProt Q15910, Y641N); assay: Y641N EZH2 activity inhibition assay (as EZH2 assay, reconstituted H3K27Me2 oligonucleosomes as substrate); assay type: biochemical; conditions: Y641N EZH2 mutant enzyme
Protocol: as §1, with “Elmer). The final assay conditions for EZH2 were as follows: 50 mM Tris Buffer pH 8.5, 1 mM DTT, 69 μM Brij-35 detergent, 5.0 mM MgCl2, 0.1 mg/mL BSA, 0.2 μM ^3H SAM, 0.2 μM biotinylated oligonucleosomes, 3.6 μM H3K27me3 peptide and 2 nM EZH2.” for “Elmer).”
A 12.5 μL volume of the HMT enzyme, H3K27me3 peptide and oligonucleosome substrate in assay buffer was added to each well of the assay plate using a Multidrop Combi (ThermoFisher). Compounds were pre-incubated with the enzyme for 20 min, followed by initiation of the methyltransferase reaction by addition of 12.5 μL of 3H SAM in assay buffer (final volume=25 μL). The final concentrations of compounds ranged from a top default concentration of 80 μM down to 0.16 μM in ten 2-fold dilution steps. Reactions were carried out for 60 minutes and quenched with 20 μL per well of 1.96 mM SAH, 50 mM Tris PH 8.5, 200 mM EDTA. Stopped reactions were transferred to SAV coated Flashplates (Perkin Elmer), incubated for 120 min, washed with a plate washer, and then read on the TopCount NXT (1.0 min/well) to measure the amount of methyl histone product formed during the reaction.

Chain of EZH2 (Q15910 whole entry): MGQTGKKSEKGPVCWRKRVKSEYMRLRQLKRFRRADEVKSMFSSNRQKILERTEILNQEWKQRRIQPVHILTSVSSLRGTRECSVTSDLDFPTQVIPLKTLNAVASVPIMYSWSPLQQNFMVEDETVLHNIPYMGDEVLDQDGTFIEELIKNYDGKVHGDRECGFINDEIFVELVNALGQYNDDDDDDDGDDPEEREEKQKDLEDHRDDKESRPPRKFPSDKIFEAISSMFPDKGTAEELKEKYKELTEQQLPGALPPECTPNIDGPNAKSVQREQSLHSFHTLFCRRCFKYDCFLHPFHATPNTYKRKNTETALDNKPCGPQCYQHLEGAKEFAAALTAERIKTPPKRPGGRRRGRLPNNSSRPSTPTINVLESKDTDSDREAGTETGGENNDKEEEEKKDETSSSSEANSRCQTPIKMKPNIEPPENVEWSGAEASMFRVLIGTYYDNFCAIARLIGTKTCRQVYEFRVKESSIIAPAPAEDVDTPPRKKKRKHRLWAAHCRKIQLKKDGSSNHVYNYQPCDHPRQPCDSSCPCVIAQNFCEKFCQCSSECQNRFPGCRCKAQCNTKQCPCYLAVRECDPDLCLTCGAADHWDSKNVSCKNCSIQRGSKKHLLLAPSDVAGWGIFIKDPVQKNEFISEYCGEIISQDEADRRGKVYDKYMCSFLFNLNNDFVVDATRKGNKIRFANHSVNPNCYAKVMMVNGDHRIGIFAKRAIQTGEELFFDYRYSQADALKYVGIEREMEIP
Chain of EZH2 (O75530 whole entry partner): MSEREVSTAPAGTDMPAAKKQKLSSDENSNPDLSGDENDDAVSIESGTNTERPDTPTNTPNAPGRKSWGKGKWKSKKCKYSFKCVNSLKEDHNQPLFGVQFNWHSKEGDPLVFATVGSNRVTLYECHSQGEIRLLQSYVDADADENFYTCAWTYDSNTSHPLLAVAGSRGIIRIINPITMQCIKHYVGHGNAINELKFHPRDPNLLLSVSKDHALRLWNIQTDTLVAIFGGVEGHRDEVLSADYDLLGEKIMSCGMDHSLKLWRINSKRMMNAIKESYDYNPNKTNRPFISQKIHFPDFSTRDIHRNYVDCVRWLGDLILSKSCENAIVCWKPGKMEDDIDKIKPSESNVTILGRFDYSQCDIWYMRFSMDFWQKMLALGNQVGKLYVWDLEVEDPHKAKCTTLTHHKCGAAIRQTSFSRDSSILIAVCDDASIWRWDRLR
Chain of EZH2 (Q15022 whole entry partner): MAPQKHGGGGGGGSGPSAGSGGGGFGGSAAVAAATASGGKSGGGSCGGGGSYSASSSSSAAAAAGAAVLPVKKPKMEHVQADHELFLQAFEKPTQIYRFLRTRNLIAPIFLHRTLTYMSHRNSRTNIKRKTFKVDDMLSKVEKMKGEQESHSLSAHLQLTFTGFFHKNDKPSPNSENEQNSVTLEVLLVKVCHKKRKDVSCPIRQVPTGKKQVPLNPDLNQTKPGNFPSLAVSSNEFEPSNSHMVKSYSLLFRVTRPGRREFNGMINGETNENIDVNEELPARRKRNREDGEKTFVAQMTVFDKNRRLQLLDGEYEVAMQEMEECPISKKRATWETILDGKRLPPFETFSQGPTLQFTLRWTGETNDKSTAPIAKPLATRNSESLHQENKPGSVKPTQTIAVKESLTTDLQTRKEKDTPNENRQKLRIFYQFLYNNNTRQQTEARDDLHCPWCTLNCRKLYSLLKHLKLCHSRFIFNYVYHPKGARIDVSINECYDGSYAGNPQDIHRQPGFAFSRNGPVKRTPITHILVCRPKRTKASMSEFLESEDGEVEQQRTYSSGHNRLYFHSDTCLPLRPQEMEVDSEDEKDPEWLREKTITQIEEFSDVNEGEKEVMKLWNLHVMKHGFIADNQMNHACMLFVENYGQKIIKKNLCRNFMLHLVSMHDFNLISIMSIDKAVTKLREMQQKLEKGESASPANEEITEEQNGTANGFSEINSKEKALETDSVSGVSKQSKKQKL
Chain of Y641N EZH2 (Q15910 whole entry Y641N): as the sequence (Q15910 whole entry) above, with Y641N counted along it
Chain of Y641N EZH2 (O75530 whole entry partner): as the sequence (O75530 whole entry partner) above
Chain of Y641N EZH2 (Q15022 whole entry partner): as the sequence (Q15022 whole entry partner) above

Row | Structure (SMILES) | IC50 (EZH2) | IC50 (Y641N EZH2)
1 | Cc1cc(C)c(CNC(=O)c2ccc(CN(C)c3ccccc3)cc2)c(=O)[nH]1 [Compound I-36, N-((2-hydroxy-4,6-dimethylpyridin-3-yl)methyl)-4-((methyl(phenyl)amino)methyl)benzamide] | 10 to 50 µM | > 80 µM
2 | Cc1cc(C)c(CNC(=O)c2ccc(Oc3ccccc3)c(C)c2)c(=O)[nH]1 [Compound I-37, N-((2-hydroxy-4,6-dimethylpyridin-3-yl)methyl)-3-methyl-4-phenoxybenzamide] | 1 to 10 µM | 1 to 10 µM
3 | Cc1cc(C)c(CNC(=O)c2ccc(C(C)Oc3ccccc3C)cc2)c(=O)[nH]1 (stereo not drawn) [Compound I-38, N-((2-hydroxy-4,6-dimethylpyridin-3-yl)methyl)-4-(1-(o-tolyloxy)ethyl)benzamide] | < 1 µM | 1 to 10 µM
4 | Cc1cccc(OC(C)c2ccc(C(=O)NCc3c(C)cc(C)[nH]c3=O)cc2)c1 (stereo not drawn) [Compound I-39, N-((2-hydroxy-4,6-dimethylpyridin-3-yl)methyl)-4-(1-(m-tolyloxy)ethyl)benzamide] | < 1 µM | < 1 µM
5 | Cc1cc(C)c(CNC(=O)c2ccc(CNc3ccccc3)cc2)c(=O)[nH]1 [Compound I-40, N-((2-hydroxy-4,6-dimethylpyridin-3-yl)methyl)-4-((phenylamino)methyl)benzamide] | 1 to 10 µM | 10 to 50 µM
6 | Cc1cc(C)c(CNC(=O)c2ccc(C(C)Oc3ccccc3F)cc2)c(=O)[nH]1 (stereo not drawn) [Compound I-41, 4-(1-(2-fluorophenoxy)ethyl)-N-((2-hydroxy-4,6-dimethylpyridin-3-yl)methyl)benzamide] | < 1 µM | < 1 µM
7 | Cc1cc(C)c(CNC(=O)c2ccc(C(C)Oc3cccc(F)c3)cc2)c(=O)[nH]1 (stereo not drawn) [Compound I-42, 4-(1-(3-fluorophenoxy)ethyl)-N-((2-hydroxy-4,6-dimethylpyridin-3-yl)methyl)benzamide] | < 1 µM | < 1 µM
8 | Cc1cc(C)c(CNC(=O)c2ccc(C(Oc3ccccc3)C(C)C)cc2)c(=O)[nH]1 (stereo not drawn) [Compound I-43, N-((2-hydroxy-4,6-dimethylpyridin-3-yl)methyl)-4-(2-methyl-1-phenoxypropyl)benzamide] | 10 to 50 µM | > 50 µM
9 | CCC(Oc1ccccc1)c1ccc(C(=O)NCc2c(C)cc(C)[nH]c2=O)cc1 (stereo not drawn) [Compound I-44, N-((2-hydroxy-4,6-dimethylpyridin-3-yl)methyl)-4-(1-phenoxypropyl)benzamide] | < 1 µM | < 1 µM
10 | Cc1cc(C)c(CNC(=O)c2ccc3c(c2)CCC3Oc2ccccc2)c(=O)[nH]1 (stereo not drawn) [Compound I-45, N-((2-hydroxy-4,6-dimethylpyridin-3-yl)methyl)-1-phenoxy-2,3-dihydro-1H-indene-5-carboxamide] | > 50 µM | > 80 µM
11 | Cc1cc(C)c(CNC(=O)c2ccc(C(C)Oc3ccc(F)cc3)cc2)c(=O)[nH]1 (stereo not drawn) [Compound I-46, 4-(1-(4-fluorophenoxy)ethyl)-N-((2-hydroxy-4,6-dimethylpyridin-3-yl)methyl)benzamide] | < 1 µM | < 1 µM
12 | Cc1cc(C(F)(F)F)[nH]c(=O)c1CNC(=O)c1ccc(Oc2ccccc2)cc1 [Compound I-47, N-((2-hydroxy-4-methyl-6-(trifluoromethyl)pyridin-3-yl)methyl)-4-phenoxybenzamide] | > 50 µM | 10 to 50 µM
13 | Cc1cc(C)c(CNC(=O)c2ccc(CCc3ccccc3)cc2)c(=O)[nH]1 [Compound I-48, N-((2-hydroxy-4,6-dimethylpyridin-3-yl)methyl)-4-phenethylbenzamide] | 1 to 10 µM | > 80 µM
14 | Cc1cc(C)c(CNC(=O)c2ccc(C(CC(C)C)Oc3ccccc3)cc2)c(=O)[nH]1 (stereo not drawn) [Compound I-49, N-((2-hydroxy-4,6-dimethylpyridin-3-yl)methyl)-4-(3-methyl-1-phenoxybutyl)benzamide] | 10 to 50 µM | 10 to 50 µM
15 | Cc1cc(C)c(CNC(=O)c2ccc([C@@H](C)Oc3ccccc3)cc2C)c(=O)[nH]1 [Compound I-50] | 1 to 10 µM | > 80 µM
16 | Cc1cc(C)c(CNC(=O)c2ccc(C3Cc4ccccc4O3)cc2)c(=O)[nH]1 (stereo not drawn) [Compound I-51, 4-(2,3-dihydrobenzofuran-2-yl)-N-((2-hydroxy-4,6-dimethylpyridin-3-yl)methyl)benzamide] | 1 to 10 µM | > 80 µM
17 | Cc1cc(C)c(CNC(=O)c2ccc3c(c2)CCCC3Oc2ccccc2)c(=O)[nH]1 (stereo not drawn) [Compound I-52, N-((2-hydroxy-4,6-dimethylpyridin-3-yl)methyl)-5-phenoxy-5,6,7,8-tetrahydronaphthalene-2-carboxamide] | 10 to 50 µM | 10 to 50 µM
18 | COC(c1ccccc1)c1ccc(C(=O)NCc2c(C)cc(C)[nH]c2=O)cc1 (stereo not drawn) [Compound I-53, N-((2-hydroxy-4,6-dimethylpyridin-3-yl)methyl)-4-(methoxy(phenyl)methyl)benzamide] | 10 to 50 µM | 10 to 50 µM
19 | Cc1cc(C)c(CNC(=O)c2ccc(COc3ccccc3)c(C)c2)c(=O)[nH]1 [Compound I-54, N-((2-hydroxy-4,6-dimethylpyridin-3-yl)methyl)-3-methyl-4-(phenoxymethyl)benzamide] | < 1 µM | 1 to 10 µM
20 | Cc1cc(C)c(CNC(=O)c2ccc([C@H](C)Oc3ccccc3)cc2C)c(=O)[nH]1 [Compound I-55, (S)—N-((2-hydroxy-4,6-dimethylpyridin-3-yl)methyl)-2-methyl-4-(1-phenoxyethyl)benzamide] | < 1 µM | < 1 µM
21 | Cc1cc(C)c(CNC(=O)c2ccc(C(C)n3ccccc3=O)cc2)c(=O)[nH]1 (stereo not drawn) [Compound I-56, N-((2-hydroxy-4,6-dimethylpyridin-3-yl)methyl)-4-(1-(2-oxopyridin-1(2H)-yl)ethyl)benzamide] | 1 to 10 µM | > 80 µM
22 | Cc1nc(C)c(CNC(=O)c2ccc(Oc3ccccc3)cc2)c(=O)[nH]1 [Compound I-59, N-((4-hydroxy-2,6-dimethylpyrimidin-5-yl)methyl)-4-phenoxybenzamide] | 1 to 10 µM | 1 to 10 µM
23 | Cc1cc(C)c(CNC(=O)c2ccc(C(C)Oc3ccccn3)cc2)c(=O)[nH]1 (stereo not drawn) [Compound I-60, N-((2-hydroxy-4,6-dimethylpyridin-3-yl)methyl)-4-(1-(pyridin-2-yloxy)ethyl)benzamide] | < 1 µM | 1 to 10 µM
24 | Cc1cc(C)c(CNC(=O)c2ccc(C(C)Oc3ccccc3)c(F)c2)c(=O)[nH]1 (stereo not drawn) [Compound I-63, 3-fluoro-N-((2-hydroxy-4,6-dimethylpyridin-3-yl)methyl)-4-(1-phenoxyethyl)benzamide] | < 1 µM | < 1 µM
25 | Cc1cc(C)c(CNC(=O)c2ccc(C(C)Oc3ccccc3)nc2)c(=O)[nH]1 (stereo not drawn) [Compound I-64, N-((2-hydroxy-4,6-dimethylpyridin-3-yl)methyl)-6-(1-phenoxyethyl)nicotinamide] | 1 to 10 µM | > 80 µM
26 | Cc1cc(C(F)(F)F)c(CNC(=O)c2ccc(Oc3ccccc3)cc2)c(=O)[nH]1 [Compound I-65, N-((2-hydroxy-6-methyl-4-(trifluoromethyl)pyridin-3-yl)methyl)-4-phenoxybenzamide] | 10 to 50 µM | > 80 µM
27 | Cc1cc(C)c(CNC(=O)c2ccc(C(C)Oc3ccccc3)cc2Cl)c(=O)[nH]1 (stereo not drawn) [Compound I-66, 2-chloro-N-((2-hydroxy-4,6-dimethylpyridin-3-yl)methyl)-4-(1-phenoxyethyl)benzamide] | < 1 µM | < 1 µM
28 | Cc1cc(C)c(CNC(=O)c2ccc([C@H](C)Oc3cccc(-c4ccc(N)nc4)c3)cc2)c(=O)[nH]1 [Compound I-69] | < 1 µM | < 1 µM
29 | Cc1cc(C)c(CNC(=O)c2ccc(C(C)Oc3ncccn3)cc2)c(=O)[nH]1 (stereo not drawn) [Compound I-76, N-((2-hydroxy-4,6-dimethylpyridin-3-yl)methyl)-4-(1-(pyrimidin-2-yloxy)ethyl)benzamide] | 10 to 50 µM | > 80 µM
30 | Cc1cc(C)c(CNC(=O)c2ccc(C(C)Oc3cccnc3)nc2)c(=O)[nH]1 (stereo not drawn) [Compound I-78, N-((2-hydroxy-4,6-dimethylpyridin-3-yl)methyl)-6-(1-(pyridin-3-yloxy)ethyl)nicotinamide] | 1 to 10 µM | > 80 µM
